Results: patent US11926614B2, “1,2,4-triazole derivatives as tankyrase inhibitors” (priority 2018, dated 2024)
pIC50: −log10 of the molar value. “And” between values parts separate entries of the source, which are not always exact repeats. Equal values may be shown once. Read-outs that look alike come from different tables or passages of the source.

Experiments:
HEK293 = assay: Cellular IC50 HEK293; assay type: cell-based
Description: (§1) XLfit (idbs) was used to determine the IC50-values in inhibition experiments. The following formula was chosen to fit the data points (Langmuir Binding Isotherm): fit=((A+(B*x))+4(C−B)*(1−exp((−1*D)*x)))/D)), res=(y−fit)

TNKS2 = TNKS2 (Homo sapiens (Human), UniProt Q9H2K2); assay: Biochemical IC50 TNKS2
TNKS2, sequence (Q9H2K2 whole entry): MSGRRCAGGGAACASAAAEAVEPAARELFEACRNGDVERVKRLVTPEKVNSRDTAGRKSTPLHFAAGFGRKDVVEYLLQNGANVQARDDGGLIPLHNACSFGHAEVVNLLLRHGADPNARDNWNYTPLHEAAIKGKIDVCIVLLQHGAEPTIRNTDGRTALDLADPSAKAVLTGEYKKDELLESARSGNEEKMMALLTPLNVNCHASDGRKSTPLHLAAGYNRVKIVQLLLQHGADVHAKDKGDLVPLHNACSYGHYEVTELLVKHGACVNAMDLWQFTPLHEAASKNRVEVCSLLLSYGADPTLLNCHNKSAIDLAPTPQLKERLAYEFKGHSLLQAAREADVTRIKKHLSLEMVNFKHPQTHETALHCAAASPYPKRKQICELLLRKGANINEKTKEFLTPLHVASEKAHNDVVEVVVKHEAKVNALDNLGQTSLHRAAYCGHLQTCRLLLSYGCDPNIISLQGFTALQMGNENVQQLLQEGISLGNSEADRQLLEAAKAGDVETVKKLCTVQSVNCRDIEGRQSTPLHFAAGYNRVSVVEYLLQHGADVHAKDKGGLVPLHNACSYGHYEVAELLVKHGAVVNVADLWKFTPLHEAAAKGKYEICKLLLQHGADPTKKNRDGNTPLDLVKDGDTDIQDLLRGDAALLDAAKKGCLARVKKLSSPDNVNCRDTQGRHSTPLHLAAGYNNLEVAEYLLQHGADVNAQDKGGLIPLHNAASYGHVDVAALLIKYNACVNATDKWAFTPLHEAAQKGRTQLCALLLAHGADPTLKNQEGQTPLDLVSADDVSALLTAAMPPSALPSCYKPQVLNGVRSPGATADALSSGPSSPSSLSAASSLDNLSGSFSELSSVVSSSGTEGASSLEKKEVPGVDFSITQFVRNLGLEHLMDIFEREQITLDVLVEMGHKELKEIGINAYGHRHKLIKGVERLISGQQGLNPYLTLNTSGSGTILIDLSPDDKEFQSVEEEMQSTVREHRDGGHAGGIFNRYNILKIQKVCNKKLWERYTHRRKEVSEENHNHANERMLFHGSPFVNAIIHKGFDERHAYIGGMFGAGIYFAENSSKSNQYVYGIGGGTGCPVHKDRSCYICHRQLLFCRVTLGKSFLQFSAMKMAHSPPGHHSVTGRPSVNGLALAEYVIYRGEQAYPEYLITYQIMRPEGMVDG
Description: as §1

[1] = Homo sapiens, HEK293, HEK293; read-out: Cellular IC50 HEK293
[2] = read-out: Biochemical IC50 TNKS2
[3] = Homo sapiens, HEK293, read-out: Cellular IC50 HEK293
[4] = Homo sapiens, HEK293; read-out: Cellular IC50 HEK293

SMILES	pIC50 (HEK293; [1])	pIC50 (TNKS2; [2])	pIC50 (HEK293; [3])	pIC50 (TNKS2)	pIC50 (HEK293; [4])
CCOc1ccc(-c2nnc(C34CC(NC(=O)c5ccccn5)(C3)C4)n2-c2ccccc2)nc1 [Example 66, N-(3-(5-(5-ethoxypyridin-2-yl)-4-phenyl-4H-1,2,4-triazol-3-yl)bicyclo[1.1.1]pentan-1-yl)picolinamide]	6.91	7.46			
CCOc1ccc(-c2nnc([C@H]3C[C@H](NC(=O)c4cc5sccc5[nH]4)C3)n2-c2ccccc2F)nc1 [Example 149, N-((1S,3r)-3-(5-(5-ethoxypyridin-2-yl)-4-(2-fluorophenyl)-4H-1,2,4-triazol-3-yl)cyclobutyl)-4H-thieno[3,2-b]pyrrole-5-carboxamide]	7.57	8.13			
CCOc1ccc(-c2nnc([C@H]3C[C@H](NC(=O)c4ccccc4)C3)n2-c2ccccc2F)nc1 [Example 52, N-((1S,3r)-3-(5-(5-ethoxypyridin-2-yl)-4-(2-fluorophenyl)-4H-1,2,4-triazol-3-yl)cyclobutyl)benzamide]	7.14	8.02			
O=C(N[C@H]1C[C@H](c2nnc(-c3ccc(OC(F)F)cn3)n2-c2ccccc2F)C1)c1ccc2cnccc2n1 [Example 184, N-((1S,3r)-3-(5-(5-(difluoromethoxy)pyridin-2-yl)-4-(2-fluorophenyl)-4H-1,2,4-triazol-3-yl)cyclobutyl)-1,6-naphthyridine-2-carboxamide]	8.00	8.47			
CCOc1ccc(-c2nnc([C@H]3C[C@H](NC(=O)c4ncccc4C)C3)n2-c2ccccc2F)nc1 [Example 102, N-((1S,3r)-3-(5-(5-ethoxypyridin-2-yl)-4-(2-fluorophenyl)-4H-1,2,4-triazol-3-yl)cyclobutyl)-3-methylpicolinamide]	6.04	6.72			
CCOc1ccc(-c2nnc([C@H]3C[C@H](NC(=O)c4ccnc5cccnc45)C3)n2-c2ccccn2)nc1 [Example 124, N-((1r,3r)-3-(5-(5-ethoxypridin-2-yl)-4-(pyridin-2-yl)-4H-1,2,4-triazol-3-yl)cyclobutyl)-1,5-naphthyridine-4-carboxamide]		8.24	7.44		
O=C(N[C@H]1C[C@H](c2nnc(-c3nccs3)n2-c2ccccc2Cl)C1)c1ccnc2cccnc12 [Example 41, N-((1S,3r)-3-(4-(2-chlorophenyl)-5-(thiazol-2-yl)-4H-1,2,4-triazol-3-yl)cyclobutyl)-1,5-naphthyridine-4-carboxamide]	9.19	8.70			
CCOc1ccc(-c2nnc([C@H]3C[C@H](NC(=O)c4cccc5cccnc45)C3)n2-c2ccccc2)nc1 [Example 71, N-((1r,3r)-3-(5-(5-ethoxypyridin-2-yl)-4-phenyl-4H-1,2,4-triazol-3-yl)cyclobutyl)quinoline-8-carboxamide]	8.74				
O=C(NC12CC(c3nnc(-c4ccncn4)n3-c3ccccc3Cl)(C1)C2)c1ccccn1 [Example 22, N-(3-(4-(2-chlorophenyl)-5-(pyrimidin-4-yl)-4H-1,2,4-triazol-3-yl)bicyclo[1.1.1]pentan-1-yl)picolinamide]	7.60	8.42			
[2H]C([2H])([2H])C([2H])([2H])Oc1ccc(-c2nnc([C@H]3C[C@H](NC(=O)c4cccc5cc(F)cnc45)C3)n2-c2ccccc2F)nc1 [Example 141, N-((1S,3r)-3-(5-(5-(ethoxy-d5)pyridin-2-yl)-4-(2-fluorophenyl)-4H-1,2,4-triazol-3-yl)cyclobutyl)-3-fluoroquinoline-8-carboxamide]	8.96			8.54	
CCOc1ccc(-c2nnc([C@H]3C[C@H](NC(=O)c4cccc5cccnc45)C3)n2-c2cccc(Cl)c2)nc1 [Example 139, N-((1r,3r)-3-(4-(3-chlorophenyl)-5-(5-ethoxypyridin-2-yl)-4H-1,2,4-triazol-3-yl)cyclobutyl)quinoline-8-carboxamide]	8.40	8.06			
[2H]C([2H])([2H])C([2H])([2H])Oc1ccc(-c2nnc([C@H]3C[C@H](NC(=O)c4cnn5ccccc45)C3)n2-c2ccccc2F)nc1 [Example 142, N-((1S,3r)-3-(5-(5-(ethoxy-d5)pyridin-2-yl)-4-(2-fluorophenyl)-4H-1,2,4-triazol-3-yl)cyclobutyl)pyrazolo[1,5-a]pyridine-3-carboxamide]	7.26			7.64	
O=C(N[C@H]1C[C@H](c2nnc(-c3nccs3)n2-c2ccncc2)C1)c1cccc2cccnc12 [Example 146, N-((1r,3r)-3-(4-(pyridin-4-yl)-5-(thiazol-2-yl)-4H-1,2,4-triazol-3-yl)cyclobutyl)quinoline-8-carboxamide]	7.10	7.80			
O=C(NC12CC(c3nnc(-c4ccncn4)n3-c3ccccc3Cl)(C1)C2)c1ccnc2cccnc12 [Example 21, N-(3-(4-(2-chlorophenyl)-5-(pyrimidin-4-yl)-4H-1,2,4-triazol-3-yl)bicyclo[1.1.1]pentan-1-yl)-1,5-naphthyridine-4-carboxamide]	9.30	8.74			
O=C(N[C@H]1C[C@H](c2nnc(-c3nccs3)n2-c2ccccc2)C1)c1ccccc1 [Example 34, N-((1r,3r)-3-(4-phenyl-5-(thiazol-2-yl)-4H-1,2,4-triazol-3-yl)cyclobutyl)benzamide]	6.04	6.54			
CCOc1ccc(-c2nnc([C@H]3C[C@H](NC(=O)c4ccnc5cccnc45)C3)n2-c2ccc(C)s2)nc1 [Example 82, N-((1r,3r)-3-(5-(5-ethoxypyridin-2-yl)-4-(5-methylthiophen-2-yl)-4H-1,2,4-triazol-3-yl)cyclobutyl)-1,5-naphthyridine-4-carboxamide]		9.14	9.09		
O=C(N[C@H]1C[C@H](c2nnc(-c3nccs3)n2-c2ccccc2)C1)c1ccc(F)cc1 [Example 35, 4-fluoro-N-((1r,3r)-3-(4-phenyl-5-(thiazol-2-yl)-4H-1,2,4-triazol-3-yl)cyclobutyl)benzamide]	6.24	6.92			
O=C(N[C@H]1C[C@H](c2nnc(-c3nccs3)n2-c2ccc(Cl)s2)C1)c1ccccn1 [Example 79, N-((1r,3r)-3-(4-(5-chlorothiophen-2-yl)-5-(thiazol-2-yl)-4H-1,2,4-triazol-3-yl)cyclobutyl)picolinamide]	6.85	7.57			
CCOc1ccc(-c2nnc([C@H]3C[C@H](NC(=O)c4cn5ccccc5n4)C3)n2-c2ccccc2F)nc1 [Example 118, N-((1S,3r)-3-(5-(5-ethoxypyridin-2-yl)-4-(2-fluorophenyl)-4H-1,2,4-triazol-3-yl)cyclobutyl)imidazo[1,2-a]pyridine-2-carboxamide]	7.00	7.92			
CCOc1ccc(-c2nnc([C@H]3C[C@H](NC(=O)c4ccnc5cc(F)cnc45)C3)n2-c2ccncc2)nc1 [Example 170, N-((1r,3r)-3-(5-(5-ethoxypyridin-2-yl)-4-(pyridin-4-yl)-4H-1,2,4-triazol-3-yl)cyclobutyl)-7-fluoro-1,5-naphthyridine-4-carboxamide]		8.54	8.22		
Cc1ccc(-n2c(-c3nccs3)nnc2[C@H]2C[C@H](NC(=O)c3ccccn3)C2)s1 [Example 88, N-((1r,3r)-3-(4-(5-methylthiophen-2-yl)-5-(thiazol-2-yl)-4H-1,2,4-triazol-3-yl)cyclobutyl)picolinamide]	7.03	7.33			
CS(=O)(=O)c1ccc(-c2nnc([C@H]3C[C@H](NC(=O)c4ccc(F)cn4)C3)n2-c2ccccc2F)nc1 [Example 107, 5-fluoro-N-((1S,3r)-3-(4-(2-fluorophenyl)-5-(5-(methylsulfonyl)pyridin-2-yl)-4H-1,2,4-triazol-3-yl)cyclobutyl) picolinamide]	7.49	8.24			
O=C(N[C@H]1C[C@H](c2nnc(-c3nccs3)n2-c2ccccn2)C1)c1cccc2cccnc12 [Example 38, N-((1r,3r)-3-(4-(pyridin-2-yl)-5-(thiazol-2-yl)-4H-1,2,4-triazol-3-yl)cyclobutyl)quinoline-8-carboxamide]	7.34	7.35			
CCOc1ccc(-c2nnc([C@H]3C[C@H](NC(=O)c4ccc(F)cc4)C3)n2-c2ccccc2F)nc1 [Example 56, N-((1S,3r)-3-(5-(5-ethoxypyridin-2-yl)-4-(2-fluorophenyl)-4H-1,2,4-triazol-3-yl)cyclobutyl)-4-fluorobenzamide]		8.00 and 8.70			
O=C(N[C@H]1C[C@H](c2nnc(-c3nccs3)n2-c2ccccc2F)C1)c1ccnc2cc(F)cnc12 [Example 29, 7-fluoro-N-((1S,3r)-3-(4-(2-fluorophenyl)-5-(thiazol-2-yl)-4H-1,2,4-triazol-3-yl)cyclobutyl)-1,5-naphthyridine-4-carboxamide]	8.89				
CCOc1ccc(-c2nnc([C@H]3C[C@H](NC(=O)c4cccc5nccnc45)C3)n2-c2ccccc2F)nc1 [Example 154, N-((1S,3r)-3-(5-(5-ethoxypyridin-2-yl)-4-(2-fluorophenyl)-4H-1,2,4-triazol-3-yl)cyclobutyl)quinoxaline-5-carboxamide]			9.28		
CCOc1ccc(-c2nnc([C@H]3C[C@H](NC(=O)c4ccccn4)C3)n2-c2ccccc2F)nc1 [Example 54, N-((1S,3r)-3-(5-(5-ethoxypyridin-2-yl)-4-(2-fluorophenyl)-4H-1,2,4-triazol-3-yl)cyclobutyl)picolinamide]					7.77
[2H]C([2H])([2H])C([2H])([2H])Oc1ccc(-c2nnc([C@H]3C[C@H](NC(=O)c4ccccn4)C3)n2-c2ccccc2F)nc1 [Example 93, N-((1S,3r)-3-(5-(5-(ethoxy-d5)pyridin-2-yl)-4-(2-fluorophenyl)-4H-1,2,4-triazol-3-yl)cyclobutyl)picolinamide]					8.02
O=C(N[C@H]1C[C@H](c2nnc(-c3ccncn3)n2-c2ccccc2Cl)C1)c1c(F)cccc1F [Example 16, N-((1S,3r)-3-(4-(2-chlorophenyl)-5-(pyrimidin-4-yl)-4H-1,2,4-triazol-3-yl)cyclobutyl)-2,6-difluorobenzamide]	5.11				
